The subject of experiment [1] is differentiated L6-myotubes. In words: Glucose uptake screen (Biological example 1 of WO 2019/053427). Format: cell-based. Particulars: compound at 10 μM, activity relative to isoproterenol at 10 μM, read-out: Biological example 1 of WO 2019/053427 (GU). Put shortly: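 Rat L6 myoblasts were differentiated into myotubes over 7 days in 2% FBS, then serum-starved overnight. Cells were stimulated with 1×10^−5 M compound plus β2 antagonist ICI-118551 for 1 h 40 min and re-dosed for 20 min in glucose-free medium. Uptake of 50 nM ^3H-2-deoxyglucose over 10 min was counted after NaOH lysis.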

Experiment [2] relates to differentiated L6-myotubes. Kind of experiment: cAMP production relative to isoprenaline (Biological example 2 of WO 2019/053427). In kind it is cell-based. Particulars: 0.25 h, compound at 10 μM, activity relative to isoproterenol at 10 μM. Put shortly:
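Differentiated L6 myotubes stimulated 15 min with test compound or isoprenaline, each at final 1×10^−5 M, in HBSS with 1% BSA, 5 mM HEPES, 1 mM IBMX, pH 7.4. cAMP production by the compound expressed relative to that induced by the same concentration of isoprenaline.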
On the technique in general: Changes in cAMP serve as a functional read-out for many G protein-coupled receptors.

Take `COC(=O)[C@H]1CC[C@H](CC(C)(C)NC[C@H](O)c2cncc(F)c2)CC1` [Compound 354, methyl (1R,4r)-4-{2-[(R)-2-(5-fluoro-3-pyridyl)-2-hydroxyethylamino]-2-methylpropyl}cyclohexanecarboxylate]: the values for the Emax at 10 µM in experiment [1] and in experiment [2] were 50 to 75% and below 25%, respectively.

Turning to `CC(C)(C[C@H]1CC[C@H](C(=O)O)CC1)NC[C@H](O)c1cccc(F)c1` [Compound 355, (1R,4r)-4-{2-[(R)-2-(m-fluorophenyl)-2-hydroxyethylamino]-2-methylpropyl}cyclohexanecarboxylic acid], the Emax at 10 µM in experiment [1] is 50 to 75%; in experiment [2] it was below 25%.

For the compound `CC(C)(C[C@H]1CC[C@H](C(=O)O)CC1)NC[C@H](O)c1cncc(F)c1` [Compound 356, (1R,4r)-4-{2-[(R)-2-(5-fluoro-3-pyridyl)-2-hydroxyethylamino]-2-methylpropyl}cyclohexanecarboxylic acid], the Emax at 10 µM in experiment [1] and in experiment [2] was below 25% in each case.

As for `CC(=O)N[C@H]1CC[C@H](CC(C)(C)NC[C@H](O)c2cncc(F)c2)CC1` [Compound 357, N-[(1R,4r)-4-{2-[(R)-2-(5-fluoro-3-pyridyl)-2-hydroxyethylamino]-2-methylpropyl}cyclohexyl]acetamide], the Emax at 10 µM in experiment [1] was above 75%; in experiment [2], below 25%.

`CC(C)(CC[C@H]1CC[C@H](N)CC1)NC[C@H](O)c1cncc(F)c1` [Compound 358, (R)-2-{1,1-dimethyl-3-[(1r,4R)-4-aminocyclohexyl]propylamino}-1-(5-fluoro-3-pyridyl)-1-ethanol]: the Emax at 10 µM is 25 to 50% in experiment [1] and below 25% in experiment [2].

Regarding `CC(C)(C[C@H]1CC[C@H](N)CC1)NC[C@H](O)c1cncc(F)c1` [Compound 359, (R)-2-{1,1-dimethyl-2-[(1r,4R)-4-aminocyclohexyl]ethylamino}-1-(5-fluoro-3-pyridyl)-1-ethanol], the results for the Emax at 10 µM in experiment [1] and in experiment [2] were above 75% and below 25%, respectively.

Take `CC(C)(C[C@H]1CC[C@H](NS(C)(=O)=O)CC1)NC[C@H](O)c1cncc(F)c1` [Compound 360, (R)-2-{1,1-dimethyl-2-[(1r,4R)-4-(mesylamino)cyclohexyl]ethylamino}-1-(5-fluoro-3-pyridyl)-1-ethanol]: the figures for the Emax at 10 µM in experiment [1] and in experiment [2] were above 75% and below 25%, respectively.

Take `CC(=O)N[C@H]1CC[C@H](CCC(C)(C)NC[C@H](O)c2cncc(F)c2)CC1` [Compound 361, N-[(1R,4r)-4-{3-[(R)-2-(5-fluoro-3-pyridyl)-2-hydroxyethylamino]-3-methlbutyl}cyclohexyl]acetamide]: the Emax at 10 µM was above 75% in experiment [1] and below 25% in experiment [2].

Turning to `CC(C)(CC[C@H]1CC[C@H](NS(C)(=O)=O)CC1)NC[C@H](O)c1cncc(F)c1` [Compound 362, (R)-2-{1,1-dimethyl-3-[(1r,4R)-4-(mesylamino)cyclohexyl]propylamino}-1-(5-fluoro-3-pyridyl)-1-ethanol], the Emax at 10 µM in experiment [1] was 50 to 75%; in experiment [2], below 25%.

Take `CO[C@H]1CC[C@H](C[C@]2(C)CC[C@H]([C@@H](O)c3cccc(F)c3)N2)CC1` [Compound 363, (S)-[(2R,5S)-5-methyl-5-{[(1r,4S)-4-methoxycyclohexyl]methyl}-2-pyrrolidinyl](m-fluorophenyl)methanol]: the Emax at 10 µM in experiment [1] is above 75%; in experiment [2], below 25%.

On to `CO[C@H]1CC[C@H](C[C@]2(C)CC[C@H]([C@H](O)c3cccc(F)c3)N2)CC1` [Compound 364, (R)-[(2R,5S)-5-methyl-5-{[(1r,4S)-4-methoxycyclohexyl]methyl}-2-pyrrolidinyl](m-fluorophenyl)methanol], for which the Emax at 10 µM in experiment [1] was above 75%; in experiment [2], 50 to 75%.

Regarding `COc1ccc(C[C@@]2(C)CC[C@H]([C@@H](O)c3cccc(F)c3)N2)cc1` [Compound 365, (S)-{(2R,5R)-5-[(p-methoxyphenyl)methyl]-5-methyl-2-pyrrolidinyl}(m-fluorophenyl)methanol], the Emax at 10 µM in experiment [1] was above 75%; in experiment [2], below 25%.

Consider `COc1ccc(C[C@@]2(C)CC[C@H]([C@H](O)c3cccc(F)c3)N2)cc1` [Compound 366, (R)-{(2R,5R)-5-[(p-methoxyphenyl)methyl]-5-methyl-2-pyrrolidinyl}(m-fluorophenyl)methanol], for which the Emax at 10 µM is above 75% in experiment [1] and 25 to 50% in experiment [2].

Consider `COC(=O)[C@H]1CC[C@H](C(C)(C)NC[C@H](O)c2cccc(F)c2)CC1` [Compound 367, (1R,4r)-8-[(R)-2-(m-fluorophenyl)-2-hydroxyethylamino]-7-methoxy-p-menthan-7-one], for which the results for the Emax at 10 µM in experiment [1] and in experiment [2] were above 75% and 25 to 50%, respectively.

Consider `CC(C)(NC[C@H](O)c1cccc(F)c1)[C@H]1CC[C@H](C(=O)O)CC1` [Compound 368, (1R,4r)-8-[(R)-2-(m-fluorophenyl)-2-hydroxyethylamino]-7-hydroxy-p-menthan-7-one], for which the Emax at 10 µM in experiment [1] was 25 to 50%; in experiment [2] it was below 25%.

Turning to `CC(C)(NC[C@H](O)c1cccc(F)c1)[C@H]1CC[C@@H](C(=O)O)CC1` [Compound 369, (1S,4s)-8-[(R)-2-(m-fluorophenyl)-2-hydroxyethylamino]-7-hydroxy-p-menthan-7-one], the Emax at 10 µM was 50 to 75% in experiment [1] and below 25% in experiment [2].

`COC(=O)[C@H]1CC[C@H](C(C)(C)NC[C@H](O)c2cncc(F)c2)CC1` [Compound 370, (1R,4r)-8-[(R)-2-(5-fluoro-3-pyridyl)-2-hydroxyethylamino]-7-methoxy-p-menthan-7-one]: the Emax at 10 µM in experiment [1] was above 75%; in experiment [2], below 25%.

`CC(C)(C[C@H]1CC[C@H](N)CC1)NC[C@H](O)c1cccc(F)c1` [Compound 371, (R)-2-{1,1-dimethyl-2-[(1r,4R)-4-aminocyclohexyl]ethylamino}-1-(m-fluorophenyl)-1-ethanol]: the Emax at 10 µM in experiment [1] was above 75%; in experiment [2], below 25%.

For the compound `COc1ccc(C[C@@H]2CC[C@H]([C@@H](O)c3cccc(F)c3)N2)cc1` [Compound 372, (S)-{(2R,5S)-5-[(p-methoxyphenyl)methyl]-2-pyrrolidinyl}(m-fluorophenyl)methanol], the Emax at 10 µM in experiment [1] was above 75%; in experiment [2], below 25%.

Turning to `COc1ccc(C[C@@H]2CC[C@H]([C@H](O)c3cccc(F)c3)N2)cc1` [Compound 373, (R)-{(2R,5S)-5-[(p-methoxyphenyl)methyl]-2-pyrrolidinyl}(m-fluorophenyl)methanol], the figures for the Emax at 10 µM in experiment [1] and in experiment [2] were above 75% and 25 to 50%, respectively.

Turning to `COc1ccc(C[C@H]2CC[C@H]([C@H](O)c3cccc(F)c3)N2)cc1` [Compound 374, (R)-{(2R,5R)-5-[(p-methoxyphenyl)methyl]-2-pyrrolidinyl}(m-fluorophenyl)methanol], the Emax at 10 µM in experiment [1] was above 75%; in experiment [2], below 25%.

With `COc1ccc(C[C@H]2CC[C@H]([C@@H](O)c3cccc(F)c3)N2)cc1` [Compound 375, (S)-{(2R,5R)-5-[(p-methoxyphenyl)methyl]-2-pyrrolidinyl}(m-fluorophenyl)methanol], the Emax at 10 µM in experiment [1] was above 75%; in experiment [2] it was below 25%.

These data come from patent publication US20260256751A1, “COMBINATION OF BETA-2-ADRENERGIC RECEPTOR AGONISTS AND GLP-1 RECEPTOR AGONISTS FOR USE IN TREATING HYPERGLYCAEMIA” (ATROGI AB, priority 2023, published 2026).
